What was measured:
[1] = target: ATP-dependent translocase ABCB1 (Homo sapiens, UniProt P08183); experiment: TP_TRANSPORTER: transepithelial transport (basal to apical) in MDR1-expressing LLC-PK1 cells; assay type: functional, cell-based; settings: pig
[2] = target: ATP-dependent translocase ABCB1 (Mus musculus, UniProt P21447); experiment: TP_TRANSPORTER: transepithelial transport (basal to apical) in mdr1a-expressing LLC-PK1 cell; assay type: functional, cell-based; settings: pig
ATP-dependent translocase ABCB1 (Mus musculus, UniProt P21447), sequence (P21447 whole entry): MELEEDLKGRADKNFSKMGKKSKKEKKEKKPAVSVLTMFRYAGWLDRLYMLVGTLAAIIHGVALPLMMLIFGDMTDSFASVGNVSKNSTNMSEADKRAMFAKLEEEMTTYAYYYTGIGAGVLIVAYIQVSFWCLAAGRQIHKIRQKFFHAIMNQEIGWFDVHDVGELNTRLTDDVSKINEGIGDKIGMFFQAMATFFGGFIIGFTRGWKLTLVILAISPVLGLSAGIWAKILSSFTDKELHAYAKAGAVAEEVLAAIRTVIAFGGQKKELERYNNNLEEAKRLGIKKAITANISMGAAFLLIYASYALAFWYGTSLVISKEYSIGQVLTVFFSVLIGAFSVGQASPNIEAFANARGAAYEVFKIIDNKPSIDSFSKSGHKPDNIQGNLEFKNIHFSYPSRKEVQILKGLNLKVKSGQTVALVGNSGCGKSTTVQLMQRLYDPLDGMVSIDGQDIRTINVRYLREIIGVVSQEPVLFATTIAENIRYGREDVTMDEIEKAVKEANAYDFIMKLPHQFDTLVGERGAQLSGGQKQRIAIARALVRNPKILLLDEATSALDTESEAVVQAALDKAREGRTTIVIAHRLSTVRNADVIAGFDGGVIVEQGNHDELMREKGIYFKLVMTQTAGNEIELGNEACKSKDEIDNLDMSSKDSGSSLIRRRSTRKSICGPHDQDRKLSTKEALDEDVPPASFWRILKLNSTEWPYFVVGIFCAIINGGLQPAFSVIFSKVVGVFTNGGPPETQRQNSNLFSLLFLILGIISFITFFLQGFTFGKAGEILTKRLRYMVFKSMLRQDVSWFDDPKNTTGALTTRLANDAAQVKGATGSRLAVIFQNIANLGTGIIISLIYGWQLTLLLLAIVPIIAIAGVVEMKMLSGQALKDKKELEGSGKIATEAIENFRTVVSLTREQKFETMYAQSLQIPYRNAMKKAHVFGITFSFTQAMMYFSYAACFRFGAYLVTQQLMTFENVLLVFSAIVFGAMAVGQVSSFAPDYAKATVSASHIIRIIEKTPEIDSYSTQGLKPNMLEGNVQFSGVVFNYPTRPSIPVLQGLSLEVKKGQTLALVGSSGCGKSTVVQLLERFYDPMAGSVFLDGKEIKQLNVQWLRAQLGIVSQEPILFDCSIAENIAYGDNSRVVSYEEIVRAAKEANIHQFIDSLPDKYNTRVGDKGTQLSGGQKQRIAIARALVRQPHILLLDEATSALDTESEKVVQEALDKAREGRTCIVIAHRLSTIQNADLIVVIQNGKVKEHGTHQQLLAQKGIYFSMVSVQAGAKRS

ATP-dependent translocase ABCB1 (Homo sapiens, UniProt P08183), sequence (P08183 whole entry): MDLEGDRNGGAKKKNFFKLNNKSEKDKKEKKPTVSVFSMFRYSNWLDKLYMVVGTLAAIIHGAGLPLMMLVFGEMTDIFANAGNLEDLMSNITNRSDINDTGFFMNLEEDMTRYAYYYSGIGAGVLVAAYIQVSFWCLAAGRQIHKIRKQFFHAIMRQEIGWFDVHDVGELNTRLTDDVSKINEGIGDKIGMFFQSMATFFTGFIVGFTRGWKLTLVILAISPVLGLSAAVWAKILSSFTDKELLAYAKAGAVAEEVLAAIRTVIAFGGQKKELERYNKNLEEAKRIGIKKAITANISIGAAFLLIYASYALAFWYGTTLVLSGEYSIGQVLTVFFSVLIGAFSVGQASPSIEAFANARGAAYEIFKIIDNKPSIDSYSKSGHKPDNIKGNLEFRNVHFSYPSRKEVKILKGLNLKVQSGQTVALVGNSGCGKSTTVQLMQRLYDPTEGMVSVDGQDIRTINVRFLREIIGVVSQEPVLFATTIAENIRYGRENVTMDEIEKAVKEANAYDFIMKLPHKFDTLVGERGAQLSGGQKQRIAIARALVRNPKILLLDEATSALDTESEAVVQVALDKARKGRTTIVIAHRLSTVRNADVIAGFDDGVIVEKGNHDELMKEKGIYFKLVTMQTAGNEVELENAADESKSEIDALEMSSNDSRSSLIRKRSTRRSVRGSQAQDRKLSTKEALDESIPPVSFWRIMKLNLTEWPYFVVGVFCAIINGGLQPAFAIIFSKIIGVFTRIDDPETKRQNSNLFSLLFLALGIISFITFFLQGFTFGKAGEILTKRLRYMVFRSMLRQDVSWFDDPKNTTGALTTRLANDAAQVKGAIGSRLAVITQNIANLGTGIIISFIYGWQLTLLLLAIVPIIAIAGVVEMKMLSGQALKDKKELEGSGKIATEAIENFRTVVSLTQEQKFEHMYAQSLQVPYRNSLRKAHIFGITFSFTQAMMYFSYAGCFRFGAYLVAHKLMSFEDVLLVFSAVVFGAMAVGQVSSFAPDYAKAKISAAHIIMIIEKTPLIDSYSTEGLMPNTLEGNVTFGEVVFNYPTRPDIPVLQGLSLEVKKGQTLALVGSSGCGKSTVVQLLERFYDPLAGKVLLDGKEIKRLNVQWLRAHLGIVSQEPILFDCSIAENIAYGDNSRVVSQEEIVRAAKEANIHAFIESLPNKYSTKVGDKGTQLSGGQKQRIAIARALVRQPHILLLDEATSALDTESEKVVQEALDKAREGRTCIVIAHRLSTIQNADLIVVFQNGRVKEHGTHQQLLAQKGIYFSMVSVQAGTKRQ

Compound | Activity [1] | Activity [2]
C[C@@H]1C[C@H]2[C@@H]3CCC4=CC(=O)C=C[C@]4(C)[C@@]3(F)[C@@H](O)C[C@]2(C)[C@@]1(O)C(=O)CO [DEXAMETHASONE] | substrate [+] | substrate [+]
CN1CC[C@]23c4c5ccc(O)c4O[C@H]2[C@@H](O)C=C[C@H]3[C@H]1C5 [MORPHINE] |  | substrate [+]
IVERMECTIN | substrate [+] | substrate [+]

Source: ChEMBL document CHEMBL2074129 (J Clin Invest, 1995)
